In series [1] the test system is Candida albicans ATCC 10231. It is filed as cell-based. The following applies: ATCC 10231, 48 h. As for the experimental part: (§1) The minimum inhibitory concentration (MIC) was determined according to the procedure recommended by the Clinical Laboratory Standards Institute guidelines. Reference strains of bacteria: Staphylococcus aureus ATCC 25923, Staphylococcus epidermidis ATCC 14990, Escherichia coli ATCC 25922, Pseudomonas aeruginosa ATCC 9027, and fungus Candida albicans ATCC 10231 were obtained from Polish Collection of Microorganisms (PCM, Polish Academy of Sciences, Wroclaw, Poland). […] The plates with the compounds were incubated for 18 h at 37 °C for bacteria and 48 h at 25 °C for fungi. The minimum inhibitory concentration was assumed as the lowest concentration of a lipopeptide at which the observable growth was inhibited.

The test system of series [2] is Escherichia coli ATCC 25922. The class given is cell-based. The following applies: ATCC 25922, 18 h. How it is done:
as §1

For series [3], the system named is Pseudomonas aeruginosa ATCC 9027. It is filed as cell-based. The following applies: ATCC 9027, 18 h. As for the experimental part: as §1
Series [4] relates to Staphylococcus aureus ATCC 25923. The class given is cell-based. The following applies: ATCC 25923, 18 h. As for the experimental part:
as §1

The test system of series [5] is Staphylococcus epidermidis ATCC 14990. It is filed as cell-based. The following applies: ATCC 14990, 18 h. As for the experimental part:
as §1

The subject of series [6] is human keratinocytes HaCaT. It is filed as cell-based. Particulars: 48 h. How it is done: The cytotoxicity of the compounds was evaluated on the basis of a tetrazolium salt reduction test (MTT) performed along the lines of human keratinocytes HaCaT. The keratinocytes were planted in 96-well plates in a medium supplemented with serum. After 24 h, the medium was changed to a serum-free DMEM one containing graded concentrations of peptides. The cells were incubated with peptides for 48 h. Thereafter, MTT was added in order to reach a final concentration of 0.5 mg/mL, and the plates were incubated at 37 °C for 4 h. Then, the MTT reading was analysed using a plate reader. The absorbance at 630 nm (background absorbance) was subtracted from that at 570 nm for each well.

For series [7] the following is noted: different lipopeptide concentrations.

Converted amounts (≈) assume the structure as drawn. Residues, ends and D or L forms follow the SMILES beside them. *: point of attachment. Palmitoyl = CCCCCCCCCCCCCCCC(=O)*; Myristoyl = CCCCCCCCCCCCCC(=O)*; Lauroyl = CCCCCCCCCCCC(=O)*

`CCCCCCCCCCCCCCCC(=O)N[C@@H](CCCCN)C(=O)NCC(=O)N[C@@H](CCCCN)C(N)=O` [Peptide C16-KGK-NH2] (Palmitoyl-Lys-Gly-Lys-NH2): the “MIC C. albicans” value in series [1] was found to be 8 µg/mL (≈ 14.1 µM). Moreover, the “MIC E. coli” value in series [2] stood at 8 µg/mL (≈ 14.1 µM). Moreover, in series [3], the “MIC P. aeruginosa” value was found to be 64 µg/mL (≈ 113 µM). The “MIC S. aureus” value in series [4] was 16 µg/mL (≈ 28.1 µM). In series [5], the “MIC S. epidermidis” value amounted to 4 µg/mL (≈ 7.03 µM). Also, in series [6], the “IC50 on human keratinocytes (HaCaT)” value came to 7.41 ± 3.05 µg/mL (≈ 13 µM).
For the compound `CCCCCCCCCCCCCC(=O)N[C@@H](CCCCN)C(=O)N[C@@H](CCCCN)C(=O)N[C@@H](CCCCN)C(=O)N[C@@H](CCCNC(=N)N)C(N)=O` [Peptide C14-KKKR-NH2] (Myristoyl-KKKR-NH2), in series [1], the “MIC C. albicans” value was determined as 128 µg/mL (≈ 167 µM). Besides, the “MIC E. coli” value in series [2] was 128 µg/mL (≈ 167 µM). In addition, in series [3], the “MIC P. aeruginosa” value was 128 µg/mL (≈ 167 µM). Further, in series [4], the “MIC S. aureus” value turned out to be 32 µg/mL (≈ 41.7 µM). Besides, in series [5], the “MIC S. epidermidis” value was at most 1 µg/mL. Besides, the “IC50 on human keratinocytes (HaCaT)” value in series [6] was determined as 32.5 ± 10.0 µg/mL (≈ 42.3 µM).
Consider `CCCCCCCCCCCCCCCC(=O)N[C@@H](CCCNC(=N)N)C(=O)N[C@@H](CCCNC(=N)N)C(=O)N[C@@H](CCCNC(=N)N)C(=O)N[C@@H](CCCNC(=N)N)C(N)=O` [Peptide C16-RRRR-NH2] (Palmitoyl-RRRR-NH2), for which, in series [7], the “aggregate size from self-diffusion coefficients (PFG NMR), compared with C16-KKKK-NH2” value is given as “distinctly larger aggregates”.
Consider `CCCCCCCCCCCCCCCCCC(=O)N[C@@H](CCCCN)C(=O)N[C@@H](CCCCN)C(N)=O` [Peptide C18-KK-NH2], for which, in series [1], the “MIC C. albicans” value was 4 µg/mL (≈ 7.41 µM). Besides, the “MIC E. coli” value in series [2] stood at 128 µg/mL (≈ 237 µM). Further, in series [3], the “MIC P. aeruginosa” value came out at 64 µg/mL (≈ 119 µM). In series [4], the “MIC S. aureus” value worked out at 64 µg/mL (≈ 119 µM). Besides, in series [5], the “MIC S. epidermidis” value amounted to 4 µg/mL (≈ 7.41 µM). The “IC50 on human keratinocytes (HaCaT)” value in series [6] was 0.69 ± 0.001 µg/mL (≈ 1.28 µM).
Regarding `CCCCCCCCCCCCCCCC(=O)N[C@@H](CCCCN)C(=O)NCCC(=O)N[C@@H](CCCCN)C(N)=O` [Peptide C16-KβAK-NH2], the “MIC C. albicans” value in series [1] was 4 µg/mL (≈ 6.86 µM). The “MIC E. coli” value in series [2] was 64 µg/mL (≈ 110 µM). Also, in series [3], the “MIC P. aeruginosa” value turned out to be 64 µg/mL (≈ 110 µM). For the same compound, the “MIC S. aureus” value in series [4] is 128 µg/mL (≈ 220 µM). Further, the “MIC S. epidermidis” value in series [5] stood at 2 µg/mL (≈ 3.43 µM). Moreover, the “IC50 on human keratinocytes (HaCaT)” value in series [6] came to 25.11 ± 6.17 µg/mL (≈ 43.1 µM).
With `CCCCCCCCCCCC(=O)N[C@@H](CCCCN)C(=O)N[C@@H](CCCNC(=N)N)C(=O)N[C@@H](CCCCN)C(=O)N[C@@H](CCCCN)C(N)=O` [Peptide C12-KRKK-NH2] (Lauroyl-KRKK-NH2), in series [1], the “MIC C. albicans” value worked out at 512 µg/mL (≈ 692 µM). In addition, the “MIC E. coli” value in series [2] worked out at 512 µg/mL (≈ 692 µM). The “MIC P. aeruginosa” value in series [3] was found to be 512 µg/mL (≈ 692 µM). Also, the “MIC S. aureus” value in series [4] is 64 µg/mL (≈ 86.5 µM). In addition, the “MIC S. epidermidis” value in series [5] is at most 1 µg/mL.
As to `CCCCCCCCCCCCCC(=O)N[C@@H](CCCCN)C(=O)N[C@@H](CCCCN)C(=O)N[C@@H](CCCCN)C(=O)N[C@@H](CCCCN)C(N)=O` [Peptide C14-KKKK-NH2] (Myristoyl-KKKK-NH2), in series [1], the “MIC C. albicans” value was determined as 128 µg/mL (≈ 173 µM). In addition, in series [2], the “MIC E. coli” value is 128 µg/mL (≈ 173 µM). Besides, the “MIC P. aeruginosa” value in series [3] was determined as 64 µg/mL (≈ 86.5 µM). Also, the “MIC S. aureus” value in series [4] is 32 µg/mL (≈ 43.2 µM). Further, the “MIC S. epidermidis” value in series [5] is 2 µg/mL (≈ 2.7 µM). In addition, the “IC50 on human keratinocytes (HaCaT)” value in series [6] amounted to 15.63 ± 0.74 µg/mL (≈ 21.1 µM).
For `CCCCCCCCCCCCCC(=O)N[C@@H](CCCCN)C(=O)N[C@@H](CCCNC(=N)N)C(=O)N[C@@H](CCCCN)C(=O)N[C@@H](CCCCN)C(N)=O` [Peptide C14-KRKK-NH2] (Myristoyl-KRKK-NH2), the “MIC C. albicans” value in series [1] worked out at 128 µg/mL (≈ 167 µM). For the same compound, the “MIC E. coli” value in series [2] came to 64 µg/mL (≈ 83.3 µM). Further, the “MIC P. aeruginosa” value in series [3] was determined as 64 µg/mL (≈ 83.3 µM). The “MIC S. aureus” value in series [4] is 16 µg/mL (≈ 20.8 µM). The “MIC S. epidermidis” value in series [5] was at most 1 µg/mL. Moreover, the “IC50 on human keratinocytes (HaCaT)” value in series [6] worked out at 20.38 ± 4.12 µg/mL (≈ 26.5 µM).
Regarding `CCCCCCCCCCCCCCCC(=O)N[C@@H](CCCCN)C(=O)N[C@@H](CCCCN)C(=O)N[C@@H](CCCCN)C(=O)N[C@@H](CCCCN)C(N)=O` [Peptide C16-KKKK-NH2] (Palmitoyl-KKKK-NH2), in series [1], the “MIC C. albicans” value turned out to be 16 µg/mL (≈ 20.8 µM). For the same compound, the “MIC E. coli” value in series [2] turned out to be 16 µg/mL (≈ 20.8 µM). For the same compound, the “MIC P. aeruginosa” value in series [3] stood at 16 µg/mL (≈ 20.8 µM). Also, in series [4], the “MIC S. aureus” value is 8 µg/mL (≈ 10.4 µM). Moreover, the “MIC S. epidermidis” value in series [5] came to 8 µg/mL (≈ 10.4 µM). In series [6], the “IC50 on human keratinocytes (HaCaT)” value was 23.52 ± 1.30 µg/mL (≈ 30.6 µM).
As for `CCCCCCCCCCCC(=O)N[C@@H](CCCCN)C(=O)N[C@@H](CCCCN)C(=O)N[C@@H](CCCCN)C(=O)N[C@@H](CCCCN)C(N)=O` [Peptide C12-KKKK-NH2] (Lauroyl-KKKK-NH2), the “MIC C. albicans” value in series [1] is over 512 µg/mL. Moreover, the “MIC E. coli” value in series [2] was found to be 512 µg/mL (≈ 719 µM). Besides, in series [3], the “MIC P. aeruginosa” value came to 256 µg/mL (≈ 360 µM). Besides, the “MIC S. aureus” value in series [4] was determined as 64 µg/mL (≈ 89.9 µM). Further, in series [5], the “MIC S. epidermidis” value amounted to 16 µg/mL (≈ 22.5 µM).
On to `CCCCCCCCCCCCCCCC(=O)N[C@@H](CCCCN)C(=O)N[C@@H](CCCCN)C(N)=O` [Peptide C16-KK-NH2], for which, in series [1], the “MIC C. albicans” value amounted to 4 µg/mL (≈ 7.82 µM). The “MIC E. coli” value in series [2] is 8 µg/mL (≈ 15.6 µM). Also, in series [3], the “MIC P. aeruginosa” value stood at 128 µg/mL (≈ 250 µM). Besides, in series [4], the “MIC S. aureus” value worked out at 8 µg/mL (≈ 15.6 µM). For the same compound, in series [5], the “MIC S. epidermidis” value is 4 µg/mL (≈ 7.82 µM). Besides, the “IC50 on human keratinocytes (HaCaT)” value in series [6] turned out to be 2.5 ± 0.8 µg/mL (≈ 4.88 µM).
